Measurements as given in patent US20240287081A1, “PERFLUOROALKANE SUBSTITUTED PYRAZOLO[3,4-D]PYRIMIDIN AND PYRROLO[2,3-D]PYRIMIDIN COMPOUNDS AND USES THEREOF” (ICAHN SCHOOL OF MEDICINE AT MOUNT SINAI, priority 2021, published 2024).
Each block holds one compound with its values, some of them ahead of it.

What was measured:
ptc>dRet^M955T flies = assay: Fly rescue assay (Drosophila MTC model ptc>dRet^M955T); format: in vivo; conditions: compound in fly food; for rescue (percent viability of adult flies, adults/pupae×100): 13 d at 25° C., baseline viability 0%
Protocol: Kinase-mutated fly stocks were obtained from Bloomington Drosophila Stock Center (BDSC; Bloomington, IN). The active mutant form of Drosophila Ret (dRet^955T) carries an M955T mutation corresponding to the M918T mutation commonly reported for multiple endocrine neoplasia (MEN) type 2B patients12,14,16,34. The ptc-gal4, UAS-GFP;UAS-dRet^M955T/SM5tub-gal80-TM6B transgenic flies were prepared according to standard protocols and crossed with non-transgenic w-flies (BDSC) to generate ptc-gal4, UAS-GFP; UAS-dRet^M955T(ptc>dRet^M955T) flies for chemical screening.
All drugs were synthesized in-house. All compounds were dissolved in DMSO (Sigma-Aldrich; St. Louis, MO) and mixed with semi-defined fly medium (BDSC) to make drug food (0.1% final DMSO concentration). For drug screening, ptc>dRet^M955T embryos were raised until adulthood on drug food for 13 d at 25° C. The number of empty pupal cases (i.e., adults) ? that of total pupal cases (P) to determine % viability. Fly randomization was used throughout the assays.
In this model, compounds are assessed based on their ability to suppress oncogenic Ret^M955T-induced tumors, which can be quantified as ‘rescue’ from lethality. […] The baseline viability of ptc>Ret^1955T flies was calibrated to zero, which creates a high bar for rescue but also reduces false-positive hits. Hundreds of flies are tested per condition (typical n values are […] administered through fly food.

AKSP CRC tumoroid line = assay: 3D CRC tumoroid viability, AKSP model; format: cell-based, mice; conditions: at 5.0 μM, viability after 72 hours
Protocol: To model different stages of colorectal cancer (CRC), intestinal organoids were derived from genetically engineered mice with the following genotypes Apc^flx/flx (A) and Apc^flx/flx Kra^LSL-G12D Smad4^flx/flx (AKS) and transformed ex vivo by addition of 100 nM 4-OHT for 24 hours. Once the organoids acquired a spheroid morphology characteristic of CRC Tumoroids, trp53 was knocked out in AKS tumoroids using CRISPR-CAS9 technology to generate the AKSP line. CRC tumoroid lines as well as wild type intestinal organoids were seeded onto Matrigel in 96 well plates in triplicates 16 hours before being treated with the indicated compounds at a final concentration of 0.5 μM. 72 hours later, cell viability was assessed using Titerglo® assay. Results of 3D CRC organoid line data for pyrazolo- and pyrrolopyrimidine compounds at 0.5 μm were obtained (FIGS. 25A-G). […] In the AKSP model, at 5.0 μM, the top ten compounds were: APS-8-35-3, APS-8-35-4, APS-6-87, APS-9-3, AD80, APS-8-85-2, APS-8-51-3, APS-9-2, and APS-8-56-4.

RET (WT and M918T) = assay: NanoBRET cell based target engagement assay; conditions: RET-Nluc in HEK 293T cells; for cellular IC50 against RET, ranking in words: pyrazolo- and pyrrolopyrimidine series
Protocol: Assays were completed in duplicate. […] FIG. 8D is a graph of the cell-based target engagement for the indicated compounds against wild-type and M918T RET. IC50 values were determined based on 8-point titration curves of free ligand. Competition assays were completed in technical triplicate against full-length human RET-Nluc expressed in 293T cells, complexed with an active-site fluorescent tracer.
In this assay, a bioluminescence resonance energy transfer (BRET) signal is generated between nanoLuciferase tagged RET (expressed in HEK 293T cells) and an active-site based fluorescent tracer. […] Using this assay, in vivo binding was determined for a series of compounds against mutant (M918T) and wild-type RET (FIG. 8D).

[1] = target: T1, wild-type RET kinase domain (Homo sapiens, UniProt P07949); assay: Wild-type RET Kd, bead based competition assay (KINOMEscan, DiscoverX); format: binding; conditions: recombinant human wild-type RET kinase domain, average of two replicates; read-out: Kd towards wild-type RET
T1 construct: determined against recombinant-human, wild-type RET kinase domain; phage display fusion (kinase expressed on phage); purchased DiscoverX (Fremont, CA); host or cells: phage
T1 sequence (P07949 724-1016 limits assumed): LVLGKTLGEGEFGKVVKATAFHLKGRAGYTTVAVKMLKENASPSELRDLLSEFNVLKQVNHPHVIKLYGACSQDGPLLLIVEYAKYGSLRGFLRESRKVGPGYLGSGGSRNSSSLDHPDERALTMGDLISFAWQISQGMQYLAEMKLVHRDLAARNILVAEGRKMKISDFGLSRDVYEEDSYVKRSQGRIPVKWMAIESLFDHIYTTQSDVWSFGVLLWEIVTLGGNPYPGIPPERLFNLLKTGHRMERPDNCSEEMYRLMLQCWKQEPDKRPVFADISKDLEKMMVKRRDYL
Protocol: Wild-type RET Kd values were determined by DiscoverX (Fremont, CA) using a bead based competition assay (KINOMEscan). In brief, kinases are expressed on phage and immobilized on beads via active site-directed ligands. Test compounds are premixed with kinases and assayed for the ability to compete for immobilized ligands. Binding constants are calculated with a standard dose-response curve and the Hill equation, with Hill slope set to −1. […] Kd values are the average of two experimental replicates.
To assess if the differences in activity between R^F- and R^H-analogs were related to alterations in target engagement, representative analogs for binding on wild-type RET were compared. For this KD values of compounds 40 (para-C2F5) and 50 (para-C2H5) were determined against recombinant-human, wild-type RET kinase domain.

[2] = test system: panel of 468 purified human kinases; assay: In vitro kinase percent inhibition, panel of 468 kinases (DiscoverX); format: binding; conditions: 1 μM; for binding profile / selectivity across the kinome, in words: panel of 468 kinases
Protocol: Compounds were assayed against a panel of 468 purified human kinases (DiscoverX) to measure percentage inhibition values and derive kinome profiles (FIGS. 3B-3C). All compounds were screened at 1 μM, using two experimental replicates to determine percent inhibition values. Detailed procedures for kinase reactions and assay formats are described at http://www.discoverx.com. Raw data sets for individual compounds were filtered based on the variance of experimental replicates (cutoff=average variance+standard deviation).

[3] = test system: HCC tumor organoids, BC (B-Catenin); assay: 3D HCC tumor organoid viability, BC model; format: cell-based; conditions: 5.0 μM, viability three days post drug administration
Protocol: (§1) For assays in HCC tumor organoids, 96 well plates were first coated with a 50:50 solution of basal media:Matrigel ([…]), which polymerized for 15 minutes at 37° C. Tumor organoids were taken out of Matrigel, broken, and washed. Tumor organoids were seeded at 1,000 cells per well and were treated the following day with single doses of drugs in technical triplicate. Final DMSO concentrations were kept below 0.5%. Cell viability was measured three days post drug administration with either luminescence from CellTiter-Glo or absorbance at 560 and 590 nm from resazurin. Viability data was analyzed by normalizing individual drug-treated well values to DMSO-treated wells (BC=B-Catenin; SR=sorafenib resistant). Results of 3D HCC cell line data for pyrazolo- and pyrrolopyrimidine compounds at 0.5 μm (FIGS. 22A-F), 0.05 μm (FIGS. 23A-F), and 5.0 μm (FIGS. 24A-F) were obtained. […] In the BC model, at 5.0 μM, the top ten compounds were: APS-8-100-4, APS-8-52-3, APS-8-51-4, APS-7-25-2, APS-8-100-3, APS-8-51-3, APS-8-50-4, APS-8-52-4, and APS-7-38. In the SR model, at 5.0 μM, the top ten compounds were: APS-8-51-3, APS-8-50-4, APS-8-51-4, APS-8-52-3, APS-8-50-3, APS-7-52-2, APS-8-52-4, APS-7-52-1, and APS-8-100-4.

[4] = test system: HCC tumor organoids, SR (sorafenib resistant); assay: 3D HCC tumor organoid viability, SR model; format: cell-based; conditions: 5.0 μM, viability three days post drug administration
Protocol: as §1

Compound: CC(C)n1nc(-c2ccc(NC(=O)Nc3cc(C(F)(F)F)ccc3F)cc2)c2c(N)ncnc21 [AD80, 1-(4-(4-amino-1-isopropyl-1H-pyrazolo[3,4-d]pyrimidin-3-yl)phenyl)-3-(2-fluoro-5-(trifluoromethyl)phenyl)urea, reference compound]
rescue (percent viability of adult flies, adults/pupae×100) (ptc>dRet^M955T flies): 80%
ranking by inhibition of cell proliferation, AKSP model (AKSP CRC tumoroid line): top ten
cellular IC50 wild-type RET versus M918T mutant, in words (RET (WT and M918T)): slightly lower IC50 value for wild-type RET over mutant

Compound: CNC(=O)c1cc(Oc2ccc(NC(=O)Nc3ccc(C(F)(F)F)cc3)c(F)c2)ccn1 [APS-4-9-8]
rescue activity in the fly model, in words (ptc>dRet^M955T flies): no fly rescue
rescue (percent viability of adult flies, adults/pupae×100) (ptc>dRet^M955T flies): 0%
Kd [1]: 2.8 nM
binding to wild-type RET and RET^M918T, in words ([2]; kinase panel): strong binding to wild-type and mutant RET^M918T
binding profile / selectivity across the kinome, in words [2]: strong binding to a large group of kinases
binding profile / selectivity across the kinome, in words ([2]; listed as 4-9-8): low overall selectivity

Compound: CC(C)n1cc(-c2ccc(NC(=O)Nc3cc(C(F)(F)F)ccc3F)cc2)c2c(N)ncnc21 [APS-6-87, 1-(4-(4-Amino-7-isopropyl-7H-pyrrolo[2,3-d]pyrimidin-5-yl)phenyl)-3-(2-fluoro-5-(trifluoromethyl)phenyl)urea]
ranking by inhibition of cell proliferation, AKSP model (AKSP CRC tumoroid line): top ten

cellular IC50 against RET, ranking in words (RET (WT and M918T)): highest IC50 values
Compound: CC(C)n1nc(-c2ccc(NC(=O)Nc3cc(C(F)(C(F)(F)F)C(F)(F)C(F)(F)F)ccc3F)cc2)c2c(N)ncnc21 (stereo not drawn) [APS-8-35-3, 1-(4-(4-Amino-1-isopropyl-1H-pyrazolo[3,4-d]pyrimidin-3-yl)phenyl)-3-(2-fluoro-5-(perfluorobutan-2-yl)phenyl)urea]
ranking by inhibition of cell proliferation, AKSP model (AKSP CRC tumoroid line): top ten

Compound: CC(C)n1cc(-c2ccc(NC(=O)Nc3cc(C(F)(C(F)(F)F)C(F)(F)C(F)(F)F)ccc3F)cc2)c2c(N)ncnc21 (stereo not drawn) [APS-8-35-4, 1-(4-(4-Amino-7-isopropyl-7H-pyrrolo[2,3-d]pyrimidin-5-yl)phenyl)-3-(2-fluoro-5-(perfluorobutan-2-yl)phenyl)urea 2,2,2-trifluoroacetate]
ranking by inhibition of cell proliferation, AKSP model (AKSP CRC tumoroid line): top ten

Compound: CC(C)n1nc(-c2ccc(NC(=O)Nc3ccc(C(F)(F)C(F)(F)C(F)(F)F)cc3)cc2)c2c(N)ncnc21 [APS-8-51-3, 1-(4-(4-Amino-1-isopropyl-1H-pyrazolo[3,4-d]pyrimidin-3-yl)phenyl)-3-(4-(perfluoropropyl)phenyl)urea]
ranking by inhibition of cell proliferation, BC model [3]: top ten
ranking by inhibition of cell proliferation, SR model [4]: top ten
ranking by inhibition of cell proliferation, AKSP model (AKSP CRC tumoroid line): top ten

Compound: CC(C)n1cc(-c2ccc(NC(=O)Nc3ccc(C(F)(F)C(F)(F)C(F)(F)F)cc3)cc2)c2c(N)ncnc21.O=C(O)C(F)(F)F [APS-8-51-4, 1-(4-(4-Amino-7-isopropyl-7H-pyrrolo[2,3-d]pyrimidin-5-yl)phenyl)-3-(4-(perfluoropropyl)phenyl)urea 2,2,2-trifluoroacetate]
rescue activity in the fly model, in words (ptc>dRet^M955T flies): exceptional in vivo activity
rescue (percent viability of adult flies, adults/pupae×100) (ptc>dRet^M955T flies): 100%
ranking by inhibition of cell proliferation, BC model [3]: top ten
ranking by inhibition of cell proliferation, SR model [4]: top ten

Kd [1]: 100 nM
Compound: CNC(=O)c1cc(Oc2ccc(NC(=O)Nc3ccc(C(F)(F)C(F)(F)C(F)(F)C(F)(F)F)cc3)c(F)c2)ccn1 [APS-8-52-2]

Compound: CC(C)n1cc(-c2ccc(NC(=O)Nc3cccc(C(F)(C(F)(F)F)C(F)(F)C(F)(F)F)c3)cc2)c2c(N)ncnc21 (stereo not drawn) [APS-8-56-4, 1-(4-(4-Amino-7-isopropyl-7H-pyrrolo[2,3-d]pyrimidin-5-yl)phenyl)-3-(3-(perfluorobutan-2-yl)phenyl)urea]
ranking by inhibition of cell proliferation, AKSP model (AKSP CRC tumoroid line): top ten

Compound: CC(C)n1cc(-c2ccc(NC(=O)Nc3ccc(C(F)(F)F)cc3)cc2)c2c(N)ncnc21 [APS-8-85-2, 1-(4-(4-Amino-7-isopropyl-7H-pyrrolo[2,3-d]pyrimidin-5-yl)phenyl)-3-(4-(trifluoromethyl)phenyl)urea]
ranking by inhibition of cell proliferation, AKSP model (AKSP CRC tumoroid line): top ten

Compound: CC(C)n1cc(-c2ccc(NC(=O)Nc3ccc(C(F)(F)C(F)(F)F)cc3)cc2)c2c(N)ncnc21 [APS-8-100-4, 1-(4-(4-Amino-7-isopropyl-7H-pyrrolo[2,3-d]pyrimidin-5-yl)phenyl)-3-(4-(perfluoroethyl)phenyl)urea]
rescue activity in the fly model, in words (ptc>dRet^M955T flies): exceptional in vivo activity
rescue (percent viability of adult flies, adults/pupae×100) (ptc>dRet^M955T flies): 100%
ranking by inhibition of cell proliferation, BC model [3]: top ten
ranking by inhibition of cell proliferation, SR model [4]: top ten
cellular IC50 against RET, ranking in words (RET (WT and M918T)): lowest IC50 values among the para-substituted compounds tested

Compound: CC(C)n1cc(-c2ccc(NC(=O)Nc3cccc(C(F)(F)F)c3)cc2)c2c(N)ncnc21 [APS-9-2, 1-(4-(4-Amino-7-isopropyl-7H-pyrrolo[2,3-d]pyrimidin-5-yl)phenyl)-3-(3-(trifluoromethyl)phenyl)urea]
ranking by inhibition of cell proliferation, AKSP model (AKSP CRC tumoroid line): top ten

Compound: CC(C)n1cc(-c2ccc(NC(=O)Nc3cccc(C(F)(F)C(F)(F)F)c3)cc2)c2c(N)ncnc21 [APS-9-3, 1-(4-(4-Amino-7-isopropyl-7H-pyrrolo[2,3-d]pyrimidin-5-yl)phenyl)-3-(3-(perfluoroethyl)phenyl)urea 2,2,2-trifluoroacetate]
ranking by inhibition of cell proliferation, AKSP model (AKSP CRC tumoroid line): top ten
